Assay [1] addresses T1, Neuraminidase (Influenza A virus, UniProt B4URF0). Put plainly: Inhibition of influenza A virus H1N1 Neuraminidase using 4-methylumbelliferyl-alpha-D-N-acetylneuraminic acid sodium salt hydrate substrate.
Assay [2] deals with T1, Neuraminidase. The experiment in a line: Inhibition of influenza A virus H9N2 Neuraminidase using 4-methylumbelliferyl-alpha-D-N-acetylneuraminic acid sodium salt hydrate substrate.
Assay [3] concerns the target T1, Neuraminidase. The experiment in a line: Non-competitive inhibition of influenza A virus H1N1 Neuraminidase using 4-methylumbelliferyl-alpha-D-N-acetylneuraminic acid sodium salt hydrate substrate by Lineweaver burk plot.

From ChEMBL document CHEMBL1268991, “New stilbenoid with inhibitory activity on viral neuraminidases from Erythrina addisoniae” (Bioorg Med Chem Lett, 2010) come the findings set out here.

By IC50 is commonly meant the concentration that inhibits the measured activity by half. As to `CC(C)=CCc1cc(-c2coc3cc(O)cc(O)c3c2=O)ccc1O` [CORYLIN], the half-maximal inhibitory concentration (IC50) on Neuraminidase [1] and at Neuraminidase [2] was over 148 µM each time.

What is called Ki is a dissociation constant, usually derived from enzyme kinetics or from competition with a known ligand. `COc1ccc(/C(C=O)=C\c2ccc(O)cc2OC)c(O)c1` [ERYTHRADDISON B]: the figures for the IC50 at Neuraminidase [1] and on Neuraminidase [2] were 29.3 µM and 23.9 µM, respectively. Moreover, at Neuraminidase [3], the Ki was 32.7 µM.

For the molecule `CC(C)=CCc1cc(/C=C/C(=O)c2ccc(O)cc2O)ccc1O` [LICOAGROCHALCONE A], the IC50 on Neuraminidase [1] is 66.3 µM; on Neuraminidase [2] it was 61.7 µM. In addition, on Neuraminidase [3], the Ki is 68.9 µM.

For `CC(C)=CCc1c(O)cc2occ(-c3ccc(O)cc3)c(=O)c2c1O` [WIGHTEONE], the IC50 at Neuraminidase [1] and on Neuraminidase [2] was over 148 µM in each case.

As for `CC1(C)C=Cc2cc(-c3coc4cc(O)ccc4c3=O)ccc2O1` [ISOWIGHTEONE], the IC50 at Neuraminidase [1] and on Neuraminidase [2] was over 156 µM in each case.

As for `CC1(C)C=Cc2c(c(CO)c3occ(-c4ccc(O)cc4)c(=O)c3c2O)O1` [ERYTHRADDISON A], the IC50 on Neuraminidase [1] and on Neuraminidase [2] was over 136 µM each time.

As to `C=C(C)C(O)CC1=c2occ(-c3ccc(O)cc3)c(=O)c2=C(O)C2C=CC(C)(C)OC12` (configuration not stated) [ERYSENEGALENSEIN], the IC50 at Neuraminidase [1] and on Neuraminidase [2] was over 118 µM in each case.

Turning to `CC(C)=CCc1cc(/C=C/C(=O)c2ccc(O)cc2O)cc(O)c1O` [5'-PRENYLBUTEIN], the IC50 was 64.4 µM at Neuraminidase [1] and 60.1 µM at Neuraminidase [2]. Also, the Ki on Neuraminidase [3] was 66.7 µM.

In the case of `CC(C)=CCc1cc(/C=C/C(=O)c2ccc(O)cc2O)cc(CC=C(C)C)c1O` [ABYSSINONE VI], the IC50 was 67.4 µM at Neuraminidase [1] and 62.6 µM on Neuraminidase [2]. Also, on Neuraminidase [3], the inhibition constant (Ki) is 70 µM.
